These results are taken from patent publication US20230399332A1, “IMIDAZO[1,2-a]PYRAZINE OR PYRAZOLO[1,5-a]PYRIMIDINE DERIVATIVE AND USE THEREOF” (TENCENT TECHNOLOGY (SHENZHEN) COMPANY LIMITED, priority 2022, published 2023).

In this test the target is LSD1 (Homo sapiens (Human), UniProt O60341). In words: LSD1 inhibitory activity on an enzyme level, AlphaScreen method. The format is biochemical. Particulars: in vitro. The procedure:
This experiment was carried out to test the in vitro inhibitory activity of the compounds of the present disclosure against LSD1.
Experimental steps and a method: In this experiment, the in vitro inhibitory activity of the compounds of the present disclosure against LSD1 on an enzyme level was tested by using an AlphaScreen method. The experimental steps are described as follows: • a) preparation of a 1× buffer: • preparing a 1× buffer (improved trihydroxymethylaminomethane buffer); • b) continuous dilution of the compounds: • transferring the compounds of the present disclosure to a porous plate by using Echo at a final DMSO concentration of 1%; • c) preparation of an enzyme solution: • preparing an enzyme solution in the 1× buffer; • d) preparation of a substrate solution: • adding polypeptide to the 1× buffer to prepare a substrate solution; • e) transferring 5 μL of the enzyme solution or the 1× buffer to the porous plate; • f) conducting incubation at room temperature for 15 min; • g) adding 5 μL of the substrate solution to each well to induce a reaction; • h) conducting incubation at room temperature for 40 min; • i) preparing a 1× Alphalisa buffer; • j) preparation of a 1× Alphalisa buffer solution of receptors and donors: • adding 15 μL of a receptor and donor solution in dark light environment, and conducting incubation at room temperature for 60 min; • k) reading an endpoint in an EnSpire Alpha mode; and • l) data processing: • calculating an inhibitory value according to an equation 1:
Inh %=(Max−Signal)/(Max−Min)*100; and equation 1: • calculating an IC50 value by using XL-Fit according to an equation 2:
Y=Bottom+(Top-Bottom)/(1+(IC50/X)[…]), equation 2: • where Y indicates the inhibitory rate, and X indicates the concentration of a compound.
On the technique in general: In Alpha technology, singlet oxygen from a donor bead excites a nearby acceptor bead.
As usually defined, the IC50 is the point on the concentration scale where inhibition reaches its midpoint. For the compound “4-(7-(4-aminopiperidin-1-yl)-3-(3-fluoro-4-methoxyphenyl)imidazo [1,5-a]pyrazin-2-yl)-2-fluorobenzonitrile [Compound 3]”, the midpoint of inhibition, the IC50, lay at 2.6 nM. For `COc1ccc(-c2c(-c3ccc(C#N)c(F)c3)nc3c(N[C@@H]4CC[C@H](N)C4)nccn23)cc1F` (relative stereo) [Compound 14, cis-4-(8-(((1R,3S)-3-aminocyclopentyl)amino)-3-(3-fluoro-4-methoxyphenyl)imidazo[1,2-a]pyrazin-2-yl)-2-fluorobenzonitrile], the IC50 came out at 37 nM. `COc1ccc(-c2c(-c3ccc(C#N)c(F)c3)nc3c(N[C@@H]4CC[C@@H](N)C4)nccn23)cc1F` (relative stereo) [Compound 15, trans-4-(8-(((1R,3R)-3-aminocyclopentyl)amino)-3-(3-fluoro-4-methoxyphenyl)imidazo[1,2-a]pyrazin-2-yl)-2-fluorobenzonitrile] showed an IC50 of 11 nM. Under `COc1ccc(-c2c(-c3ccc(C#N)c(F)c3)nc3c(N4CCC(N)CC4)nccn23)cc1F` [Compound 1, 4-(8-(4-aminopiperidin-1-yl)-3-(3-fluoro-4-methoxyphenyl)imidazo [1,2-a]pyrazin-2-yl)-2-fluorobenzonitrile] stands 7.4 nM; under `COc1ccc(-c2c(-c3ccc(C#N)c(F)c3)nc3c(N4CCC[C@@H](N)C4)nccn23)cc1F` [Compound 2, (R)-4-(8-(3-aminopiperidin-1-yl)-3-(3-fluoro-4-methoxyphenyl)imidazo [1,2-a]pyrazin-2-yl)-2-fluorobenzonitrile], 1.3 nM.

Take `Cn1ncc2cc(-c3c(-c4ccc(C#N)c(F)c4)nc4c(N5CCC[C@@H](N)C5)nccn34)ccc21` [Compound 5, (R)-4-(8-(3-aminopiperidin-1-yl)-3-(1-methyll-1H-indazol-5-yl)imidazo [1,2-a]pyrazin-2-yl)-2-fluorobenzonitrile]: the IC50 was determined as 2.3 nM. Compound `COc1ccc(-c2c(-c3ccc(C#N)c(F)c3)nc3c(NCC4CCCN4)nccn23)cc1F` (centres unmarked) [Compound 6, 2-fluoro-4-(3-(3-fluoro-4-methoxyphenyl)-8-((pyrrolidin-2-ylmethyl)amino)imidazo[1,2-a]pyrazin-2-yl)benzonitrile] showed an IC50 of 45 nM. For the compound `COc1ccc(-c2c(-c3ccc(C#N)c(F)c3)nc3c(NC4CCCNC4)nccn23)cc1F` (centres unmarked) [Compound 7, 2-fluoro-4-(3-(3-fluoro-4-methoxyphenyl)-8-(piperidin-3-ylamino)imidazo[1,2-a]pyrazin-2-yl)benzonitrile], the IC50 was determined as 12 nM. On to `Cn1ncc2cc(-c3c(-c4ccc(C#N)c(F)c4)nc4c(N5CCC[C@@H](N)C5)nccn34)ccc21` [Compound 8, (R)-4-(8-(3-aminopiperidin-1-yl)-3-(1-methyll-1H-indazol-5-yl)imidazo [1,2-a]pyrazin-2-yl)-2-fluorobenzonitrile], for which the IC50 turned out to be 1.7 nM. With `CN1CCOc2cc(-c3c(-c4ccc(C#N)c(F)c4)nc4c(N5CCC[C@@H](N)C5)nccn34)ccc21` [Compound 9, (R)-4-(8-(3-aminopiperidin-1-yl)-3-(4-methyll-3,4-dihydro-2H-benzo [b][1,4]oxazin-7-yl)imidazo[1,2-a]pyrazin-2-yl)-2-fluorobenzonitrile], the IC50 is 0.88 nM. `N#Cc1ccc(-c2nc3c(N4CCC[C@@H](N)C4)nccn3c2-c2cnn(CC(F)(F)F)c2)cc1F` [Compound 10, (R)-4-(8-(3-aminopiperidin-1-yl)-3-(1-(2,2,2-trifluoroethyl)-1H-pyrazol-4-yl)imidazo[1,2-a]pyrazin-2-yl)-2-fluorobenzonitrile] gave an IC50 of 7.5 nM.

For the compound `CC(C)(O)Cn1ncc2cc(-c3c(-c4ccc(C#N)c(F)c4)nc4c(N5CCC[C@@H](N)C5)nccn34)ccc21` [Compound 11, (R)-4-(8-(3-aminopiperidin-1-yl)-3-(1-(2-hydroxy-2-methylpropyl)-1H-indazol-5-yl)imidazo[1,2-a]pyrazin-2-yl)-2-fluorobenzonitrile], inhibition was half-maximal at 0.97 nM (IC50). `COc1ccc(-c2c(-c3ccc(C#N)c(F)c3)nc3c(NCC4CCNC4)nccn23)cc1F` (centres unmarked) [Compound 13, 2-fluoro-4-(3-(3-fluoro-4-methoxyphenyl)-8-((pyrrolidin-3-ylmethyl)amino)imidazo[1,2-a]pyrazin-2-yl)benzonitrile] yielded an IC50 of 56 nM. Under `COc1ccc(-c2c(-c3ccc(C#N)c(F)c3)nc3c(NC4CCNC4)nccn23)cc1F` (centres unmarked) [Compound 16, 2-fluoro-4-(3-(3-fluoro-4-methoxyphenyl)-8-(pyrrolidin-3-ylamino)imidazo[1,2-a]pyrazin-2-yl)benzonitrile] stands 15 nM. The same measure for `Cn1cc2cc(-c3c(-c4ccc(C#N)c(F)c4)nc4c(N5CCC[C@@H](N)C5)nccn34)ccc2n1` [Compound 17, (R)-4-(8-(3-aminopiperidin-1-yl)-3-(2-methyll-2H-indazol-5-yl)imidazo [1,2-a]pyrazin-2-yl)-2-fluorobenzonitrile]: 6.3 nM. `CC(C)(O)Cn1ncc2cc(-c3c(-c4ccc(C#N)c(F)c4)nc4c(N5CCC[C@@H](N)C5)nccn34)c(F)cc21` [Compound 19, (R)-4-(8-(3-aminopiperidin-1-yl)-3-(6-fluoro-1-(2-hydroxy-2-methylpropyl)-1H-indazol-5-yl)imidazo[1,2-a]pyrazin-2-yl)-2-fluorobenzonitrile] came in with an IC50 of 0.71 nM. Regarding `CC(C)(O)Cn1cc2cc(-c3c(-c4ccc(C#N)c(F)c4)nc4c(N5CCC[C@@H](N)C5)nccn34)c(F)cc2n1` [Compound 21, (R)-4-(8-(3-aminopiperidin-1-yl)-3-(6-fluoro-2-(2-hydroxy-2-methylpropyl)-2H-indazol-5-yl)imidazo[1,2-a]pyrazin-2-yl)-2-fluorobenzonitrile], the 50% inhibitory concentration (IC50) was found to be 2.3 nM. Under `CC(C)(O)Cc1ccc(-c2c(-c3ccc(C#N)c(F)c3)nc3c(N4CCC[C@@H](N)C4)nccn23)c(F)c1` [Compound 22, (R)-4-(8-(3-aminopiperidin-1-yl)-3-(2-fluoro-4-(2-hydroxy-2-methylpropyl)phenyl)imidazo[1,2-a]pyrazin-2-yl)-2-fluorobenzonitrile] stands 2.5 nM.

Turning to `CC(C)(O)Cn1nnc2cc(-c3c(-c4ccc(C#N)c(F)c4)nc4c(N5CCC[C@H](N)C5)nccn34)c(F)cc21` [Compound 23, (S)-4-(8-(3-aminopiperidin-1-yl)-3-(6-fluoro-1-(2-hydroxy-2-methylpropyl)-1H-benzo[d][1,2,3]triazol-5-yl)imidazo[1,2-a]pyrazin-2-yl)-2-fluorobenzonitrile], the IC50 stood at 4.4 nM.

In the case of `CCC(O)(CC)Cn1nnc2cc(-c3c(-c4ccc(C#N)c(F)c4)nc4c(N5CCC[C@H](N)C5)nccn34)c(F)cc21` [Compound 26, (S)-4-(8-(3-aminopiperidin-1-yl)-3-(1-(2-ethyl-2-hydroxybutyl)-6-fluoro-1H-benzo[d][1,2,3]triazol-5-yl)imidazo[1,2-a]pyrazin-2-yl)-2-fluorobenzonitrile], it took 0.7 nM to reach half-maximal inhibition (IC50).

For `CC(C)(O)Cn1nnc2cc(-c3c(-c4ccc(C#N)c(F)c4)nc4c(N5[C@@H]6CC[C@H]5C[C@@H](NC(=O)OC(C)(C)C)C6)nccn34)c(F)cc21` [Compound 28, ((1R,3r,5S)-8-(2-(4-cyano-3-fluorophenyl)-3-(6-fluoro-1-(2-hydroxy-2-methylpropyl)-1H-benzo[d][1,2,3]triazol-5-yl)imidazo[1,2-a]pyrazin-8-yl)-8-azabicyclo[3.2.1]octane-3-yl)carbamate], inhibition was half-maximal at 5.5 nM (IC50).

In turn, `Cn1nnc2cc(-c3c(-c4ccc(C#N)c(F)c4)nc4c(N5CCC[C@@H](N)C5)nccn34)c(F)cc21` [Compound 30, (R)-4-(8-(3-aminopiperidin-1-yl)-3-(6-fluoro-1-methyl-1H-benzo[d][1,2,3]triazol-5-yl)imidazo[1,2-a]pyrazin-2-yl)-2-fluorobenzonitrile] yielded a 50% inhibitory concentration (IC50) of 1 nM.

In the case of “(R)4-(7-(3-aminopiperidin-1-yl)-3-(3-fluoro-4-methoxyphenyl)imidazo [1,5-a]pyrazin-2-yl)-2-fluorobenzonitrile [Compound 4]”, 1 nM corresponded to half-maximal inhibition (IC50).
